Measurements: patent US20190105367A1, “ANTIMICROBIAL 4-OXOQUINOLIZINES” (Emergent Product Development Gaithersburg Inc., priority 2011, published 2019)
In brackets after ≈: the same amount, converted by molar mass. Read-outs that look alike come from different tables or passages of the source.

Legend:
[1] = system: A. baumannii A472; assay: MIC without and with sub-inhibitory polymyxin B (Example 4); assay type: cell-based, Acinetobacter baumannii; details: for MIC: Acinetobacter baumannii
[2] = system: A. baumannii A473; assay: as above; assay type: cell-based, Acinetobacter baumannii; details: A. baumannii A473; +0.06 μg/ml PB; 2nd experiment
[3] = system: A. baumannii ATCC 19606; assay: as above; assay type: cell-based, Acinetobacter baumannii; details: A. baumannii ATCC 19606
[4] = system: A. baumannii A401; assay: Preliminary MBC without and with sub-inhibitory polymyxin B (Example 4); assay type: cell-based, Acinetobacter baumannii; details: Acinetobacter baumannii
[5] = system: A. baumannii A14; assay: as above; assay type: cell-based, Acinetobacter baumannii; details: A. baumannii A14, +0.06 μg/ml PB, 2nd experiment
Outline: (§1)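 Incubation 18-20 h, 37° C. MBC = lowest conc. with ~90% fewer colonies than positive control (single/no colonies).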

[6] = system: A. baumannii A390; assay: as above; assay type: cell-based, Acinetobacter baumannii; details: Acinetobacter baumannii, A390, A. baumannii A390, +0.06 μg/ml PB, 2nd experiment
Outline: as §1

[7] = system: A. baumannii A473; assay: as above; assay type: cell-based, Acinetobacter baumannii; details: A. baumannii A473, +0.06 μg/ml PB, 2nd experiment
Outline: as §1

[8] = system: A. baumannii NCTC 13301; assay: as above; assay type: cell-based, Acinetobacter baumannii; details: Acinetobacter baumannii
Outline: as §1

[9] = system: A. baumannii J2; assay: MIC without and with sub-inhibitory polymyxin B (Example 4); assay type: cell-based, Acinetobacter baumannii; details: for MIC without PB/MIC + PB: A. baumannii J2; for MIC: Acinetobacter baumannii
[10] = system: A. baumannii J2; assay: Preliminary MBC without and with sub-inhibitory polymyxin B (Example 4); assay type: cell-based, Acinetobacter baumannii; details: Acinetobacter baumannii, preliminary MBC
[11] = system: A. baumannii A401; assay: MIC without and with sub-inhibitory polymyxin B (Example 4); assay type: cell-based, Acinetobacter baumannii; details: A baumannii A 401; ratio, PB 0.06 μg/ml; 1st experiment
[12] = system: A. baumannii NCTC 13301; assay: as above; assay type: cell-based, Acinetobacter baumannii; details: +[…] PB, 2nd experiment
[13] = system: A. baumannii A390; assay: as above; assay type: cell-based, Acinetobacter baumannii; details: +0.06 μg/ml PB, 2nd experiment
[14] = system: A. baumannii A14; assay: as above; assay type: cell-based, Acinetobacter baumannii; details: A. baumannii A14; +0.06 μg/ml PB; 2nd experiment
[15] = system: strains of A. baumannii and one strain of Acinetobacter sp.; assay: MIC with sub-inhibitory concentrations (0.25x MIC) of polymyxin B, panel of Acinetobacter strains (Example 4); assay type: cell-based
[16] = system: A. baumannii A14; assay: MIC without and with sub-inhibitory polymyxin B (Example 4); assay type: cell-based, Acinetobacter baumannii; details: 1st experiment
[17] = system: A. baumannii NCTC 13301; assay: as above; assay type: cell-based, Acinetobacter baumannii
[18] = system: A. baumannii A472; assay: Preliminary MBC without and with sub-inhibitory polymyxin B (Example 4); assay type: cell-based, Acinetobacter baumannii; details: Acinetobacter baumannii, preliminary MBC
[19] = system: A. baumannii A387; assay: as above; assay type: cell-based, Acinetobacter baumannii; details: A. baumannii A387, +0.06 μg/ml PB, 2nd experiment
[20] = system: A. baumannii A329; assay: MIC without and with sub-inhibitory polymyxin B (Example 4); assay type: cell-based, Acinetobacter baumannii; details: A. baumannii A329; +0.06 μg/ml PB; 2nd experiment
[21] = system: A. baumannii A329; assay: Preliminary MBC without and with sub-inhibitory polymyxin B (Example 4); assay type: cell-based, Acinetobacter baumannii; details: A. baumannii A329, +0.06 μg/ml PB, 2nd experiment
[22] = system: Acinetobacter sp. (H064200250); assay: MIC without and with sub-inhibitory polymyxin B (Example 4); assay type: cell-based
[23] = system: A. baumannii A387; assay: as above; assay type: cell-based, Acinetobacter baumannii; details: A. baumannii A387
[24] = system: A. baumannii A489; assay: as above; assay type: cell-based, Acinetobacter baumannii; details: for MIC without PB/MIC + PB: A. baumannii A489; for MIC: Acinetobacter baumannii
[25] = ratio, PB 0.06 μg/ml, 1st experiment

Compound: COc1c(N2C[C@@H]3CCCN[C@@H]3C2)c(F)cc2c(=O)c(C(=O)O)cn(C3CC3)c12 [Moxifloxacin]
- MIC without PB/MIC + PB ([1]; A. baumannii A472, ratio, PB […], 1st experiment): 0.5
- MIC ([1]; A472, A. baumannii A472, +[…] PB, 2nd experiment, read-out: MIC): 4 mg/L (≈ 9.96 µM)
- MIC ([1]; A472, read-out: MIC +[…] PB, A. baumannii A472, +[…] polymyxin B, 1st experiment): 32 mg/L (≈ 79.7 µM)
- MIC without PB/MIC + PB [2]: 1
- MIC without PB/MIC + PB ([3]; +0.06 μg/ml PB, 2nd experiment): 2
- MIC without PB/MIC + PB [3, 25]: 1
- MBC ([4]; A401, A baumannii A 401, +0.06 μg/ml PB, 2nd experiment): 8 mg/L (≈ 19.9 µM)
- MBC ([4]; A401, read-out: MBC +0.06 μg/ml PB, A baumannii A 401, +0.06 μg/ml polymyxin B, 1st experiment): 8 mg/L
- MBC [5]: 16 mg/L (≈ 39.9 µM)
- MBC [6]: 8 mg/L (≈ 19.9 µM)
- MBC [7]: 8 mg/L (≈ 19.9 µM)
- MBC ([8]; NCTC13301, A. baumannii NCTC 13301, +[…] PB, preliminary MBC, 2nd experiment): 8 mg/L (≈ 19.9 µM)
- MBC ([8]; NCTC13301, read-out: MBC +[…] PB): 128 mg/L (≈ 319 µM)
- MIC without PB/MIC + PB ([9]; +[…] PB, 2nd experiment): 4
- MIC without PB/MIC + PB ([9]; ratio, PB […], 1st experiment): 4
- MIC ([9]; J2, A. baumannii J2, +[…] PB, 2nd experiment, read-out: MIC): 8 mg/L (≈ 19.9 µM)
- MIC ([9]; J2, read-out: MIC +[…] PB, A. baumannii J2, +[…] polymyxin B, 1st experiment): 8 mg/L (≈ 19.9 µM)
- MBC ([10]; J2, A. baumannii J2, +[…] PB, 2nd experiment): 8 mg/L (≈ 19.9 µM)
- MBC ([10]; J2, read-out: MBC +[…] PB, A. baumannii J2, +[…] polymyxin B, 1st experiment): 8 mg/L (≈ 19.9 µM)
- MIC without PB/MIC + PB [11]: 2
- MIC without PB/MIC + PB ([12]; A. baumannii NCTC 13301): 8
- MIC ([12]; Acinetobacter baumannii, NCTC13301, A. baumannii NCTC 13301, read-out: MIC): 8 mg/L (≈ 19.9 µM)
- MIC without PB/MIC + PB ([13]; A. baumannii A390): 2
- MIC ([13]; Acinetobacter baumannii, A390, A. baumannii A390, read-out: MIC): 8 mg/L (≈ 19.9 µM)
- MIC [14]: 16 mg/L (≈ 39.9 µM)
- MIC without PB/MIC + PB [14]: 2
- Range ratios MIC without PB/MIC with PB Oct. 1, 2008 n = 8 ([15]; 1st experiment): 0.5-4
- MIC range with PB (0.25x MIC) Oct. 1, 2008 n = 8 ([15]; 1st experiment, […] polymyxin B, ATCC 19606, A329, A390 and A473 not taken): 4 to 128 mg/L
- Range ratios MIC without PB/MIC with PB Oct. 14, 2008 n = 11 ([15]; 2nd experiment): 1-8
- MIC range with PB (0.25x MIC) Oct. 14, 2008 n = 11 ([15]; 2nd experiment, 0.06 μg/ml polymyxin B, all strains except the ATCC strain): 4 to 32 mg/L
- MIC +0.06 μg/ml PB ([16]; +0.06 μg/ml polymyxin B): 32 mg/L
- MIC without PB/MIC + PB ([16]; ratio, PB 0.06 μg/ml): 1
- MIC without PB/MIC + PB ([17]; A. baumannii NCTC 13301, ratio, PB […], 1st experiment): 1
- MIC ([17]; Acinetobacter baumannii, NCTC13301, read-out: MIC +[…] PB): 128 mg/L (≈ 319 µM)
- MBC ([18]; A472, A. baumannii A472, +[…] PB, 2nd experiment): 4 mg/L (≈ 9.96 µM)
- MBC ([18]; A472, read-out: MBC +[…] PB, A. baumannii A472, +[…] polymyxin B, 1st experiment): 4 mg/L (≈ 9.96 µM)
- MBC [19]: 8 mg/L (≈ 19.9 µM)
- MIC without PB/MIC + PB [20]: 1
- MBC [21]: 32 mg/L (≈ 79.7 µM)
- MIC without PB/MIC + PB ([22]; Acinetobacter spp. H064200250 (OXA51), +[…] PB, 2nd experiment): 1
- MIC without PB/MIC + PB ([22]; Acinetobacter spp. H064200250, ratio, PB […], 1st experiment): 1
- MIC without PB/MIC + PB ([23]; +0.06 μg/ml PB, 2nd experiment): 1
- MIC without PB/MIC + PB [23, 25]: 1
- MIC without PB/MIC + PB ([24]; +[…] PB, 2nd experiment): 4
- MIC without PB/MIC + PB ([24]; ratio, PB […], 1st experiment): 4
- MIC ([24]; A489, A. baumannii A489, +[…] PB, 2nd experiment, read-out: MIC): 4 mg/L (≈ 9.96 µM)
- MIC ([24]; A489, read-out: MIC +[…] PB, A. baumannii A489, +[…] polymyxin B, 1st experiment): 4 mg/L (≈ 9.96 µM)
